In EP4596548A1, “NURR1 MODULATORS” (Ludwig-Maximilians-Universität, priority 2024, dated 2025):
Entries after “also recorded” stand apart in the source; their conditions may differ. Read-outs that look alike come from different tables or passages of the source. Each block holds one compound with its values, some of them ahead of it.

What was measured:
Nurr1 [1] = biological target: T1, Nurr1 (Homo sapiens, UniProt P43354); test: Gal4-Nurr1 hybrid reporter gene assay in HEK293T cells; type: cell-based; parameters: expressed in transfected cells; host or cells: HEK293T; conditions: for EC50: Gal4-Nurr1 hybrid reporter gene assay; for EC50 / max. activation: mean±SD, n≥3; for max. activation: maximum effect vs. 0.1% DMSO control; for EC50(Nurr1) (max. activation): result in words, at 100 µM
Description: (§1) Hybrid reporter gene assays. Nurr1 modulation was determined in a Gal4 hybrid reporter gene assay in HEK293T cells (German Collection of Microorganisms and Cell Culture GmbH, DSMZ) using pFR-Luc (Stratagene, La Jolla, CA, USA; reporter), pRL-SV40 (Promega, Madison, WI, USA; internal control) and pFA-CMV-hNurr1-LBD^14, coding for the hinge region and ligand binding domain of the canonical isoform of human Nurr1. […] After 24 h, medium was changed to Opti-MEM without supplements and cells were transiently transfected using Lipofectamine LTX reagent (Invitrogen, Carlsbad, CA, USA) according to the manufacturer's protocol. Five hours after transfection, cells were incubated with the test compounds in Opti-MEM supplemented with penicillin (100 U/mL), streptomycin (100 µg/mL) and 0.1% DMSO for 16 h before luciferase activity was measured using the Dual-Glo Luciferase Assay System (Promega) according to the manufacturer's protocol on a Tecan Spark luminometer (Tecan Deutschland GmbH, Crailsheim, Germany). Firefly luminescence was divided by Renilla luminescence and multiplied by 1000 resulting in relative light units (RLU) to normalize for transfection efficiency and cell growth. Fold activation was obtained by dividing the mean RLU of test compound by the mean RLU of the untreated control. All samples were tested in at least three biologically independent experiments in duplicates. For dose-response curve fitting and calculation of EC50 values, the equation "[Agonist] vs. response -- Variable slope (four parameters)" was used in GraphPad Prism (version 7.00, GraphPad Software, La Jolla, CA, USA). Selectivity profiling was performed with identical procedures using pFA-CMV-Nur77-LBD^14, pFA-CMV-NOR-1-LBD^14, pFA-CMV-THRα-LBD^39, pFA-CMV-RARα-LBD^40, pFA-CMV-PPARα-LBD^41, pFA-CMV-PPARγ-LBD^41, pFA-CMV-PPARδ-LBD^41, pFA-CMV-LXRα-LBD^37, pFA-CMV-FXR-LBD^42 and pFA-CMV-hRXRα-LBD^43.
Target sequence in this assay (P43354 360-595 limits assumed): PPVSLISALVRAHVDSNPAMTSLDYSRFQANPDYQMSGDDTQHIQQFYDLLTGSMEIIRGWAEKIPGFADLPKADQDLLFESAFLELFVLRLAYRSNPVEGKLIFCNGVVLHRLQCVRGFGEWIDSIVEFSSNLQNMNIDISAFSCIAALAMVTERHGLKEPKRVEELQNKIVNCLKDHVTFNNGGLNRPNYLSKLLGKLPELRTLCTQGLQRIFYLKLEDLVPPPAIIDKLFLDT

Nurr1 LBD = biological target: T2, Nurr1 LBD (Homo sapiens, UniProt P43354); test: Isothermal titration calorimetry (ITC); type: binding; conditions: ITC at 25°C
T2 construct: Nurr1 LBD protein (10-30 µM, expressed as described previously^21); made in house
T2 sequence (P43354 360-595 limits assumed): as above
Description: Isothermal Titration Calorimetry (ITC). ITC experiments were conducted on an Affinity ITC instrument (TA Instruments, New Castle, DE) at 25°C with a stirring rate of 75 rpm. Nurr1 LBD protein (10-30 µM, expressed as described previously^21) in buffer (20 mM Tris pH 7.5, 100 mM NaCl, 5% glycerol) containing 1-4% DMSO was titrated with the test compounds (60-150 µM in the same buffer containing 1-4% DMSO) in 26 injections (1x 1 µL, 25x 3-4 µL) with an injection interval of 150 s. As control experiments, the test compounds were titrated to the buffer, and the buffer was titrated to the Nurr1 LBD protein under otherwise identical conditions. Results were analyzed using NanoAnalyze software (version 3.11.0, TA Instruments, New Castle, DE) with independent binding models.

Nurr1 [2] = biological target: T1, Nurr1; test: Ligand efficiency metrics; conditions: computed according to ref. 29
Target sequence in this assay (P43354 whole entry, the tested form may be a part, canonical isoform): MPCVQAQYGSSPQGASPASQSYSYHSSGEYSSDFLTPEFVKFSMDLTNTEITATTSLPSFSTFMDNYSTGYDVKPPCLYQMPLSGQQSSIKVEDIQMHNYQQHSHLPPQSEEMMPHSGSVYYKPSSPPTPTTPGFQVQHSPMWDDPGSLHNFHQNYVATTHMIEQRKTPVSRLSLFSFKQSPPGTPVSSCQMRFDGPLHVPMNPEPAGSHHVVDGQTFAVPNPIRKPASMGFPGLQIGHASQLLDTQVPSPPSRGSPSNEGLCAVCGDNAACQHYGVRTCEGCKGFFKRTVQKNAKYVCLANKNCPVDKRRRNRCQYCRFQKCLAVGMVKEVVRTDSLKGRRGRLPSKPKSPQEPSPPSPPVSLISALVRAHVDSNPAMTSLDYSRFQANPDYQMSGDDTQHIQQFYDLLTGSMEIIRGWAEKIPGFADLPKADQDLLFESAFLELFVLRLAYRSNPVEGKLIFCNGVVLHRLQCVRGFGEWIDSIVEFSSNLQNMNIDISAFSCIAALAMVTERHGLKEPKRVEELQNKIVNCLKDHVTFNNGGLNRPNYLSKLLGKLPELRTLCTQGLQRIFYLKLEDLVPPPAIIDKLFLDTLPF

Nurr1 homodimer (NurRE) = biological target: T3, Nurr1 homodimer (NurRE) (Homo sapiens, UniProt P43354); test: Full-length Nurr1 reporter gene assay, response element NurRE; type: cell-based
T3 construct: The full length human nuclear receptor Nurr1 (pcDNA3.1-hNurr1-NE; Addgene plasmid #102363); host or cells: HEK293T
T3 sequence (P43354 whole entry): as the sequence (P43354 whole entry, the tested form may be a part, canonical isoform) above
Text: (§2) Full-length Nurr1 reporter gene assays. Activation of full length human Nurr1 was studied in transiently transfected HEK293T cells using the reporter plasmids pFR-Luc-NBRE^14, pFR-Luc-POMC^14 or pFR-Luc-DR5^14 each containing one copy of the respective human Nurr1 response element NBRE Nl3, NurRE, or DR5. The full length human nuclear receptor Nurr1 (pcDNA3.1-hNurr1-NE; Addgene plasmid #102363) and, for DR5, RXRα (pSG5-hRXR)^44 were overexpressed. pRL-SV40 (Promega) was used for normalization of transfection efficacy and to observe test compound toxicity. […] After 24 h, medium was changed to Opti-MEM without supplements and cells were transiently transfected using Lipofectamine LTX reagent (invitrogen) according to the manufacturer's protocol. Five hours after transfection, cells were incubated with the test compounds in Opti-MEM supplemented with penicillin (100 U/mL), streptomycin (100 µg/mL) and 0.1% DMSO for 16 h before luciferase activity was measured using the Dual-Glo Luciferase Assay System (Promega) according to the manufacturer's protocol on a Tecan Spark luminometer (Tecan Deutschland GmbH). Firefly luminescence was divided by Renilla luminescence and multiplied by 1000 resulting in relative light units (RLU) to normalize for transfection efficiency and cell growth. […]

[3] = biological target: T4, Nurr1-RXR heterodimer (DR5) (Homo sapiens, UniProt P43354); test: Full-length Nurr1 reporter gene assay, response element DR5 with RXRα; type: cell-based
T4 construct: The full length human nuclear receptor Nurr1 (pcDNA3.1-hNurr1-NE; Addgene plasmid #102363); NE (suffix in the plasmid name); host or cells: HEK293T
T4 sequence (P43354 whole entry): as the sequence (P43354 whole entry, the tested form may be a part, canonical isoform) above
T4 sequence (P19793 whole entry partner): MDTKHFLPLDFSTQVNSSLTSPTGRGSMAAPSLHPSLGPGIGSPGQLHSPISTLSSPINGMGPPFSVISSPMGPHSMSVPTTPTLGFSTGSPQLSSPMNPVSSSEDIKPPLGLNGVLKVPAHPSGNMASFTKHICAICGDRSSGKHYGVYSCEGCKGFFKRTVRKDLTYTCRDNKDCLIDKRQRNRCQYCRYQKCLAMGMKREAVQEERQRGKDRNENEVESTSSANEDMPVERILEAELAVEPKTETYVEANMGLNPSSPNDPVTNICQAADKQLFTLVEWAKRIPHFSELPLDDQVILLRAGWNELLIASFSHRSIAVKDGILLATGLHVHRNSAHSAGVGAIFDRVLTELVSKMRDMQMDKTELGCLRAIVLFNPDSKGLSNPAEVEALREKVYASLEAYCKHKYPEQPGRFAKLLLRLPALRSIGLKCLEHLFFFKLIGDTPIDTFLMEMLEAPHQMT
Text: Full-length Nurr1 reporter gene assays. Activation of full length human Nurr1 was studied in transiently transfected HEK293T cells using the reporter plasmids pFR-Luc-NBRE^14, pFR-Luc-POMC^14 or pFR-Luc-DR5^14 each containing one copy of the respective human Nurr1 response element NBRE Nl3, NurRE, or DR5. The full length human nuclear receptor Nurr1 (pcDNA3.1-hNurr1-NE; Addgene plasmid #102363) and, for DR5, RXRα (pSG5-hRXR)^44 were overexpressed. pRL-SV40 (Promega) was used for normalization of transfection efficacy and to observe test compound toxicity. […] After 24 h, medium was changed to Opti-MEM without supplements and cells were transiently transfected using Lipofectamine LTX reagent (invitrogen) according to the manufacturer's protocol. Five hours after transfection, cells were incubated with the test compounds in Opti-MEM supplemented with penicillin (100 U/mL), streptomycin (100 µg/mL) and 0.1% DMSO for 16 h before luciferase activity was measured using the Dual-Glo Luciferase Assay System (Promega) according to the manufacturer's protocol on a Tecan Spark luminometer (Tecan Deutschland GmbH). Firefly luminescence was divided by Renilla luminescence and multiplied by 1000 resulting in relative light units (RLU) to normalize for transfection efficiency and cell growth. Fold activation was obtained by dividing the mean RLU of test compound by the mean RLU of the untreated control. All samples were tested in at least three biologically independent experiments in duplicates. For dose-response curve fitting and calculation of EC50 values, the equation "[Agonist] vs. response -- Variable slope (four parameters)" was used in GraphPad Prism (version 7.00, GraphPad Software).

[4] = system: Nurr1-regulated tyrosine hydroxylase (TH), vesicular amino acid transporter 2 (VMAT2) and superoxide dismutase 2 (SOD2) in astrocytes (T98G); test: Nurr1-regulated gene expression in T98G cells (qPCR); type: cell-based, human; conditions: 0.1 µM, 0.3 µM, mRNA vs. DMSO control
[5] = system: THRα, RARα, PPARα, PPARγ, PPARδ, LXRα, FXR, RXRα; test: Selectivity screening on nuclear receptors outside the NR4A family (Gal4 hybrid reporter gene assays); type: cell-based
Description: as §1, with “For dose-response curve fitting and calculation of EC50 values, the equation "[Agonist] vs. response -- Variable slope (four parameters)" was used in GraphPad Prism (version 7.00, GraphPad Software, La Jolla, CA, USA). Selectivity profiling was performed with identical procedures using pFA-CMV-Nur77-LBD^14, pFA-CMV-NOR-1-LBD^14, pFA-CMV-THRα-LBD^39, pFA-CMV-RARα-LBD^40, pFA-CMV-PPARα-LBD^41, pFA-CMV-PPARγ-LBD^41, pFA-CMV-PPARδ-LBD^41, pFA-CMV-LXRα-LBD^37, pFA-CMV-FXR-LBD^42 and pFA-CMV-hRXRα-LBD^43.” left out

[6] = Determination of aqueous solubility; type: physicochemical; conditions: water, 24 h, 25°C
Description: Determination of aqueous solubility. […] The mixture was agitated in a VWR Thermal Shake lite (VWR International GmbH, Darmstadt, Germany) for 24 h at 600 rpm and constant temperature of 25°C. The supersaturated mixtures were subsequently centrifuged at 23.300 rpm for 15 min (25 °C). Part of the supernatant was taken off for quantification by UV absorbance at 312 nm with external calibration. The external calibration samples contained 1% DMSO and the test samples were spiked with DMSO to 1% concentration right before the measurement. Absorbance was measured with a Tecan Spark luminometer (Tecan Deutschland GmbH, Crailsheim, Germany). The solubility test was repeated in three independent experiments, […]

Nurr1 monomer (NBRE) = biological target: T5, Nurr1 monomer (NBRE) (Homo sapiens, UniProt P43354); test: Full-length Nurr1 reporter gene assay, response element NBRE; type: cell-based; conditions: result in words, at 1 µM
T5 construct: The full length human nuclear receptor Nurr1 (pcDNA3.1-hNurr1-NE; Addgene plasmid #102363); NE (suffix in the plasmid name); host or cells: HEK293T
T5 sequence (P43354 whole entry): as the sequence (P43354 whole entry, the tested form may be a part, canonical isoform) above
Text: as §2

Nur77 = biological target: T6, Nur77 (Homo sapiens, UniProt P22736); test: Gal4 hybrid reporter gene assay, selectivity profiling (Nur77); type: cell-based
T6 construct: expressed in transfected cells; host or cells: HEK293T
T6 sequence (P22736 360-595 limits assumed): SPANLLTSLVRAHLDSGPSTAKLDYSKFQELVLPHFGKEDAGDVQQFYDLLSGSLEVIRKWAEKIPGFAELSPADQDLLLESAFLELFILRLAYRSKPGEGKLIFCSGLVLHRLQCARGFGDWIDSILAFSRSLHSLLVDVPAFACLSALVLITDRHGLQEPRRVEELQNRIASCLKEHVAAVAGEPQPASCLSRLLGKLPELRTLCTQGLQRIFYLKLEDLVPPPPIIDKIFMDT
Description: as §1, with “For dose-response curve fitting and calculation of EC50 values, the equation "[Agonist] vs. response -- Variable slope (four parameters)" was used in GraphPad Prism (version 7.00, GraphPad Software, La Jolla, CA, USA). Selectivity profiling was performed with identical procedures using pFA-CMV-Nur77-LBD^14, pFA-CMV-NOR-1-LBD^14, pFA-CMV-THRα-LBD^39, pFA-CMV-RARα-LBD^40, pFA-CMV-PPARα-LBD^41, pFA-CMV-PPARγ-LBD^41, pFA-CMV-PPARδ-LBD^41, pFA-CMV-LXRα-LBD^37, pFA-CMV-FXR-LBD^42 and pFA-CMV-hRXRα-LBD^43.” left out

SMILES: CNc1ccc(-c2ccc(C(=O)Nc3c(C)nc4c(Cl)cccn34)o2)cc1 [Compound 35]
EC50 (Nurr1 [1]): 300 ± 20 nM

SMILES: Nc1c(-c2ccccc2)nc2c(Cl)cccn12 [Compound 15]
max. activation (Nurr1 [1]): 1.4±0.1 fold

SMILES: Cc1nc2c(Cl)cccn2c1NC(=O)c1ccc(-c2ccc(C(F)(F)F)cc2)o1 [Compound 31]
EC50 (Nurr1 [1]): 1100 ± 300 nM

SMILES: Cc1nc2c(Cl)cccn2c1NC(=O)c1ccc(-c2ccccc2)s1 [Compound 28]
EC50 (Nurr1 [1]): 3200 ± 400 nM
max. activation (Nurr1 [1]): 2.1±0.1 fold

SMILES: Cc1ccc(-c2nc3c(Cl)cccn3c2N)cc1 [Compound 20]
EC50 (Nurr1 [1]): 12000 ± 2000 nM
max. activation (Nurr1 [1]): 2.0±0.2 fold

SMILES: Nc1c(-c2cccc(Cl)c2)nc2c(Cl)cccn12 [Compound 18]
EC50 (Nurr1 [1]): 9000 ± 3000 nM
max. activation (Nurr1 [1]): 1.7±0.1 fold

Kd (Nurr1 LBD): 2700 nM
EC50 (Nurr1 [1]): 7000 ± 1000 nM
max. activation (Nurr1 [1]): 2.0±0.1 fold
ligand efficiency (LE) (Nurr1 [2]): 0.59
lipophilic ligand efficiency (LLE) (Nurr1 [2]): 3.28
size-independent ligand eff. (SILE) (Nurr1 [2]): 2.45
SMILES: Cc1nc2c(Cl)cccn2c1N [Compound 8, 8-Chloro-2-methylimidazo[1,2-a]pyridine-3-amine]

SMILES: Nc1cnc2ccccn12 [Compound 10]
EC50(Nurr1) (max. activation) (Nurr1 [1]): inactive (100 µM)

max. activation (Nurr1 [1]): < 1.2-fold act.
SMILES: Cc1cccc(-c2nc3c(Cl)cccn3c2N)c1 [Compound 21]

SMILES: Cc1ccc(-c2nc3c(Cl)cccn3c2N)cc1C [Compound 25]
EC50 (Nurr1 [1]): 14000 ± 2000 nM
max. activation (Nurr1 [1]): 1.6±0.1 fold

SMILES: Cc1nc2c(Cl)cccn2c1NC(=O)c1ccc(-c2ccc(OC(F)(F)F)cc2)o1 [Compound 33]
EC50 (Nurr1 [1]): 800 ± 200 nM

SMILES: COc1ccc(-c2ccc(C(=O)Nc3c(C)nc4c(Cl)cccn34)o2)cc1 [Compound 34]
EC50 (Nurr1 [1]): 160 ± 60 nM
max. activation (Nurr1 [1]): 1.7±0.1 fold

EC50 (Nurr1 [1]): 17000 ± 6000 nM
max. activation (Nurr1 [1]): 1.7±0.1 fold
ligand efficiency (LE) (Nurr1 [2]): 0.50
lipophilic ligand efficiency (LLE) (Nurr1 [2]): 1.99
size-independent ligand eff. (SILE) (Nurr1 [2]): 2.21
SMILES: Cc1cc(N)c2cccc(Cl)c2n1 [Compound 4, 8-chloro-2-methylquinolin-4-amine]

EC50 (Nurr1 homodimer (NurRE)): 94 ± 3 nM
enhancement of potency by bexarotene (factor) ([3]; DR5, 0.1 µM BEX): > 5
EC50 ([3]; with 0.1 µM bexarotene (BEX)): 33 nM
EC50 ([3]; without bexarotene, read-out: EC50(DR5)): 165 nM
activity outside the NR4A family ([5]; at 3 µM, n=3): no off-target activity
Kd (Nurr1 LBD): 170 nM
EC50 (Nurr1 [1]): 90 ± 5 nM
aq. solubility [6]: 6.8 µg/mL
EC50 (Nur77): 330 ± 40 nM
SMILES: Cc1nc2c(Cl)cccn2c1NC(=O)c1ccc(-c2ccc(N(C)C)cc2)o1 [Compound 36, N-(8-Chloro-2-methylimidazo[1,2-a]pyridin-3-yl)-5-(4-(dimethylamino)phenyl)furan-2-carboxamide]
expression of superoxide dismutase 2 (SOD2) [4]: induced expression
expression of tyrosine hydroxylase (TH) [4]: induced expression
expression of vesicular amino acid transporter 2 (VMAT2) [4]: induced expression
selectivity ([5]; Nurr1 vs. nuclear receptors outside the NR4A family): > 30 fold
EC50(NBRE) (Nurr1 monomer (NBRE)): inactive; also recorded: no activation (1 µM)

SMILES: Cc1nc2ccccn2c1N [Compound 13]
EC50(Nurr1) (max. activation) (Nurr1 [1]): inactive (100 µM)
